How the values were obtained:
[1] = Induction of insulin-sensitizing activity in insulin-resistant human HepG2 cells assessed as increase in glucose consumption at 0.1 uM relative to control; assay type: functional
[2] = Induction of insulin-sensitizing activity in insulin-resistant human HepG2 cells assessed as glucose consumption at 0.1 uM (reference value: 5.83 +/-0.101 mM); assay type: functional
[3] = molecular target: T1, Peroxisome proliferator-activated receptor gamma (Homo sapiens) (UniProt P37231); assay: Antagonist activity at PPAR-gamma (unknown origin) transfected in human HEK293 cells assessed as decrease in rosiglitazone-induced receptor transactivation at 10 uM by dual-luciferase reporter gene assay relative to control; assay type: cell-based
T1 sequence (whole entry): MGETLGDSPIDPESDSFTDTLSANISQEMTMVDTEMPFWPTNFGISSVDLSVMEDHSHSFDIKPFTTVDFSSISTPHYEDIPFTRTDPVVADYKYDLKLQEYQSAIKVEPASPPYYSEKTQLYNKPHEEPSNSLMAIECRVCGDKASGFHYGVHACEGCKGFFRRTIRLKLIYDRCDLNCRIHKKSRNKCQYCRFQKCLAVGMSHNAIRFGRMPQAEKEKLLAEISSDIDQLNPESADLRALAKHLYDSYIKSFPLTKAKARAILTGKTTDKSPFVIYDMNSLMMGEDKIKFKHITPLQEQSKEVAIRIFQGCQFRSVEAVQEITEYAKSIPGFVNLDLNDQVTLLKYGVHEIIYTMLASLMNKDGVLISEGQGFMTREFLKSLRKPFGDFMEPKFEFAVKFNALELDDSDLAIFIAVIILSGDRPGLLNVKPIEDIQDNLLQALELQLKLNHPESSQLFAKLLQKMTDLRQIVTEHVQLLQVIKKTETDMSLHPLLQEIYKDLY

[4] = Induction of insulin-sensitizing activity in insulin-resistant mouse 3T3-L1 cells assessed as increase in glucose consumption at 0.1 uM relative to control; assay type: functional
[5] = Induction of insulin-sensitizing activity in insulin-resistant mouse 3T3-L1 cells assessed as glucose consumption at 0.1 uM (reference value: 3.354 +/- 0.342 mM); assay type: functional
[6] = molecular target: T1, Peroxisome proliferator-activated receptor gamma (Homo sapiens); assay: Antagonist activity at PPAR-gamma (unknown origin) transfected in human HEK293 cells assessed as decrease in rosiglitazone-induced receptor transactivation at 1 uM by dual-luciferase reporter gene assay relative to control; assay type: cell-based
[7] = Cytotoxicity against human HepG2 cells assessed as cell viability at 0.1 uM; assay type: toxicity, cell-based; settings: read-out: Activity

| Compound | Activity [1] | Activity [2] | inhibition [3] | Activity [4] | Activity [5] | inhibition [6] | inhibition ([3]; filed as antagonist) | viability at 0.1 µM [7] |
| --- | --- | --- | --- | --- | --- | --- | --- | --- |
| CCc1ccc(-c2cccc(C(=O)Cc3cc(OC)c(CC=C(C)C)c(O)c3C(=O)O)c2)cc1 | 36.01% | 7.93 mM | 8.1% | 87.84% | 7.042 mM | – | – | – |
| COc1cc(CC(=O)c2cccc(-c3ccccc3Cl)c2)c(C(=O)O)c(O)c1CC=C(C)C | 43.55% | 8.371 mM | – | 59.21% | 5.969 mM | 24.1% | 57.5% | – |
| CN(CCOc1ccc(CC2SC(=O)NC2=O)cc1)c1ccccn1 (stereo not given) [ROSIGLITAZONE] | 22.74% | 7.15 mM | – | 44.58% | 5.421 mM | – | – | – |
| COc1cc(O)c(C(=O)O)c(CC(=O)c2cccc(-c3ccccc3C(F)(F)F)c2)c1CC=C(C)C | 41.5% | 8.251 mM | – | 51.71% | 5.688 mM | – | 80.1% | – |
| COc1cc(O)c(C(=O)O)c(CC(=O)c2cccc(-c3ccc(C)cc3)c2)c1CC=C(C)C | 28.49% | 7.492 mM | – | 99.73% | 7.488 mM | 23.9% | 64.5% | – |
| COc1ccc(-c2cccc(C(=O)Cc3cc(OC)c(CC=C(C)C)c(O)c3C(=O)O)c2)cc1 | 27.56% | 7.438 mM | 20.8% | 100.93% | 7.533 mM | – | – | – |
| COc1cc(CC(=O)c2cccc(-c3ccnc(Cl)c3)c2)c(C(=O)O)c(O)c1CC=C(C)C | 25.88% | 7.34 mM | 11.1% | 46.74% | 5.501 mM | 12.7% | – | – |
| COc1cc(O)c(C(=O)O)c(CC(=O)c2cccc(-c3ccsc3)c2)c1CC=C(C)C | 3.71% | 6.047 mM | – | 70.82% | 6.404 mM | 24.3% | 43.7% | < 80% |
| COc1cc(CC(=O)c2cccc(-c3ccc(Cl)cc3)c2)c(C(=O)O)c(O)c1CC=C(C)C | 39.56% | 8.138 mM | 26.6% | 91.12% | 7.165 mM | – | – | – |
| COc1cc(O)c(C(=O)O)c(CC(=O)c2cccc(-c3cccnc3)c2)c1CC=C(C)C | 1.49% | 5.917 mM | – | -17.14% | 3.107 mM | -3.8% | 82.5% | < 80% |
| COc1ccc(-c2cccc(C(=O)Cc3c(CC=C(C)C)c(OC)cc(O)c3C(=O)O)c2)cc1 | 24.38% | 7.252 mM | – | 105.12% | 7.69 mM | 36.9% | 79.5% | – |
| COc1cc(O)c(C(=O)O)c(CC(=O)c2cccc(C3CC3)c2)c1CC=C(C)C | 2.94% | 6.002 mM | – | 36% | 5.099 mM | 34.6% | 81.2% | – |
| COc1cc(CC(=O)c2cccc(C3CC3)c2)c(C(=O)O)c(O)c1CC=C(C)C | 14.83% | 6.696 mM | – | 51.66% | 5.686 mM | 17.7% | 77.7% | – |
| COc1cc(O)c(C(=O)O)c(CC(=O)c2cccc(-c3ccc(Cl)cc3)c2)c1CC=C(C)C | 38.76% | 8.091 mM | – | 93.55% | 7.257 mM | 19.3% | 71% | – |

From ChEMBL document CHEMBL5236599, “Design, synthesis and biological evaluation of cajanonic acid A analogues as potent PPAR γ antagonists” (Bioorg Med Chem Lett, 2023)
